# From patent US20210032374A1, “ISOLATED SAPOSHNIKOVIA DIVARICATA POLYSACCHARIDE AND USE THEREOF” (SHANGHAI GREEN VALLEY PHARMACEUTICAL CO., LTD., priority 2018, published 2021)
# Columns and labels:
# Assay type in all cases: in vivo, Kunming mice
# [1] = system: mice with diabetes mellitus induced by streptozotocin (STZ); assay: Fast blood glucose (FBG) in mice with STZ-induced diabetes mellitus; conditions: 25 mg/kg oral gavage daily, STZ diabetic mice, x ± S.D, n = 10
# Experimental: Experimental animals: healthy male Kunming mice of clean grade (weighed 18-22 g, provided by Shanghai SLAC Laboratory Animal Co., Ltd.). Experimental method: […] The diabetes mellitus model mice were randomly grouped into a model group (STZ 120 mg/kg), a low-dose Saposhnikovia divaricata polysaccharide group (SDP 50 mg/kg), a high-dose Saposhnikovia divaricata polysaccharide (SDP 200 mg/kg) group, and a positive drug (Glibenclamide, GLI 25 mg/kg) control group, 10 mice per group. For each dosing group, the mice were dosed by oral gavage at 0.2 ml/10 g body weight at 8:00 am every day. The normal control group and the model group were given an equal volume of distilled water. During the experiment, the mice in each group were allowed to access to water ad arbitrium. The FBG and body weight were measured every 10 days. 30 days after the dosing, the mice were treated, and the following indexes were measured.
# [2] = system: mice with diabetes mellitus induced by streptozotocin (STZ); assay: Glucose tolerance (i.p. glucose load) in mice with STZ-induced diabetes mellitus; conditions: 25 mg/kg, x ± S.D, n = 10
# Experimental: Experimental method: The mice were kept at a temperature of 20±2° C. and a humidity of 50±5% under 12 hours of light and 12 hours of darkness for 3 days, during which the mice were allowed to access to food and water ad arbitrium. 10 healthy mice were selected as the normal control group (Control). The remaining mice were intraperitoneally injected with a streptozotocin (STZ) solution at 0.2 ml/10 g body weight. 72 h later, the fast blood glucose (FBG) of the mice was measured. The mice having an FBG value higher than 11.1 mmol/L and lower than 25 mmol/L were selected as diabetes mellitus model mice. The diabetes mellitus model mice were randomly grouped into a model group (STZ 120 mg/kg), a low-dose Saposhnikovia divaricata polysaccharide group (SDP 50 mg/kg), a high-dose Saposhnikovia divaricata polysaccharide (SDP 200 mg/kg) group, and a positive drug (Glibenclamide, GLI 25 mg/kg) control group, 10 mice per group. For each dosing group, the mice were dosed by oral gavage at 0.2 ml/10 g body weight at 8:00 am every day. The normal control group and the model group were given an equal volume of distilled water. During the experiment, the mice in each group were allowed to access to water ad arbitrium. The FBG and body weight were measured every 10 days. 30 days after the dosing, the mice were treated, and the following indexes were measured.
# (1) Glucose tolerance: The mice were fasted at 8:00 the day before the end of the experiment. After 4 h, blood was collected from the orbit, and FBG was measured as the blood glucose level before administration of glucose (0 h). Then, all mice were intraperitoneally injected with a 10% glucose solution at 0.2 ml/10 g body weight. 0.5 hour (0.5 h) and 2 hours (2 h) after intraperitoneal injection of glucose, blood was collected from the orbit, and the blood glucose value was measured. The area under the blood glucose curve (AUC) was calculated according to the following equation: […]
# [3] = system: mice with hyperlipoidemia; assay: Liver TC and TG contents and liver weight coefficient in mice with hyperlipoidemia; conditions: positive drug 40 mg/kg
# Source text: A hyperlipoidemia model was established with reference to the methods as described in the references (Liyan Sun, Zhenliang Liu, Jinxia Sun, et al., Effect of Imperata cylindrica polysaccharide on hypoxia tolerance in mice, China Journal of Hospital Pharmacy, 2008, 28(2): 96-99; Bin Leng, Intervention of immunoregulation and renal fibrosis by Imperata cylindrica polysaccharide in rats with IgA nephropathy, Dissertations of Guilin Medical University, 2013; Shijing Lv, Qicai Long, Deyuan He, et al., Regulation of lymphocyte proliferation and T cell subpopulation by Imperata cylindrica polysaccharide in patients with hepatitis B, [Conference Paper] 2001—The Second National Academic Conference on Immunology of Traditional Chinese Medicine). Experimental method: The mice were kept at a temperature of 20±2° C. and a humidity of 50±5% under 12 hours of light and 12 hours of darkness for 3 days, during which the mice were allowed to access to food and water ad arbitrium. […] The serum TC, TG, LDL-C and HDL-C levels were measured. A part of the liver tissue of the mice was took, homogenized, and measured for liver TC and TG contents, as well as SOD and GSH-px activities and MDA content. […]
SMILES,FBG ([1]; Day 0) [mmol/L],FBG ([1]; Day 10) [mmol/L],FBG ([1]; Day 20) [mmol/L],FBG ([1]; Day 30) [mmol/L],"Blood glucose ([2]; 0 h (before glucose), after 30 days dosing) [mmol/1]",Blood glucose ([2]; 0.5 h after i.p. glucose) [mmol/1],Blood glucose ([2]; 2 h after i.p. glucose) [mmol/1],Area under the curve (AUC) ([2]; blood glucose curve 0-2 h),liver weight coefficient [3],"liver TC content ([3]; vs high-fat model group, P<0.01)"
"COc1ccc(Cl)cc1C(=O)NCCc1ccc(S(=O)(=O)NC(=O)NC2CCCCC2)cc1 [GLI, glibenclamide]",12.58 ± 2.69,15.95 ± 1.57,18.56 ± 3.02,20.44 ± 2.25,20.44 ± 2.25,29.63 ± 2.24,27.60 ± 2.04,40.62 ± 2.86,,
"CC(C)OC(=O)C(C)(C)Oc1ccc(C(=O)c2ccc(Cl)cc2)cc1 [Lipanthyl, Fenofibrate]",,,,,,,,,significantly increased,significantly lower
